# Measured values from patent publication US7592359B2, “Substituted azabicyclo hexane derivatives as muscarinic receptor antagonists” (Ranbaxy Laboratories Limited, priority 2003, dated 2009).
# How the values were obtained:
# M2 muscarinic receptor = target: T1, M2 muscarinic receptor (Rattus norvegicus, UniProt P10980); assay: Radioligand binding assay, [3H]-N-methylscopolamine, rat heart membranes; conditions: [3H]-NMS binding, read-out: Receptor Binding Assay pKi M2 (converted)
# T1 construct: Submandibular glands and heart were isolated and placed in ice cold homogenising buffer; from tissue; host or cells: rat heart membrane homogenate
# T1 sequence (P10980 1-466): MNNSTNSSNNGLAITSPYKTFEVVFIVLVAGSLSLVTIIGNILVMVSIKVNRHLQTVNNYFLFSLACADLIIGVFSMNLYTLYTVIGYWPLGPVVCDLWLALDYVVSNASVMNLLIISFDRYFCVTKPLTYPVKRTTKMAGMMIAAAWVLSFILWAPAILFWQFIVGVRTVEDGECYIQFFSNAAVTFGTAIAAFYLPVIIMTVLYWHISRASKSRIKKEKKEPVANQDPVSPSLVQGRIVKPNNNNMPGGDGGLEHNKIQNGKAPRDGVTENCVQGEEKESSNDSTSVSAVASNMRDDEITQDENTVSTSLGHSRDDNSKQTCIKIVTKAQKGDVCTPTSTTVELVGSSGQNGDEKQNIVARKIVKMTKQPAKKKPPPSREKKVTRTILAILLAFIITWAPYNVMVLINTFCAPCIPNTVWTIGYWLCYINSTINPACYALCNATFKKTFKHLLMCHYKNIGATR
# Experimental: (§1) Membrane preparation: Submandibular glands and heart were isolated and placed in ice cold homogenising buffer (HEPES 20 mM, 10 mM EDTA, pH 7.4) immediately after sacrifice. The tissues were homogenised in 10 volumes of homogenising buffer and the homogenate was filtered through two layers of wet gauze and filtrate was centrifuged at 500 g for 10 min. The supernatant was subsequently centrifuged at 40,000 g for 20 min. The pellet thus obtained was resuspended in same volume of assay buffer (HEPES 20 mM, EDTA 5 mM, pH 7.4) and were stored at −70° C. until the time of assay.
# (§2) Ligand binding assay The compounds were dissolved and diluted in DMSO. The membrane homogenates (150-250 μg protein) were incubated in 250 μl of assay buffer (HEPES 20 mM, pH 7.4) at 24-25° C. for 3 hours. Non-specific binding was determined in the presence of 1 μM atropine. The incubation was terminated by vacuum filtration over GF/B fiber filters (Wallac). The filters were then washed with ice cold 50 mM Tris HCl buffer (pH 7.4). The filter mats were dried and bound radioactivity retained on filters was counted. The IC50 & Kd were estimated by using the non-linear curve fitting program using G Pad Prism software.
# M3 muscarinic receptor = target: T2, M3 muscarinic receptor (Rattus norvegicus, UniProt P08483); assay: Radioligand binding assay, [3H]-N-methylscopolamine, rat submandibular gland membranes; conditions: [3H]-NMS binding, read-out: Receptor Binding Assay pKi M3 (converted)
# T2 construct: Submandibular glands and heart were isolated and placed in ice cold homogenising buffer; from tissue; host or cells: rat submandibular gland membrane homogenate
# Experimental: as §1, §2
# T2 sequence (P08483 whole entry): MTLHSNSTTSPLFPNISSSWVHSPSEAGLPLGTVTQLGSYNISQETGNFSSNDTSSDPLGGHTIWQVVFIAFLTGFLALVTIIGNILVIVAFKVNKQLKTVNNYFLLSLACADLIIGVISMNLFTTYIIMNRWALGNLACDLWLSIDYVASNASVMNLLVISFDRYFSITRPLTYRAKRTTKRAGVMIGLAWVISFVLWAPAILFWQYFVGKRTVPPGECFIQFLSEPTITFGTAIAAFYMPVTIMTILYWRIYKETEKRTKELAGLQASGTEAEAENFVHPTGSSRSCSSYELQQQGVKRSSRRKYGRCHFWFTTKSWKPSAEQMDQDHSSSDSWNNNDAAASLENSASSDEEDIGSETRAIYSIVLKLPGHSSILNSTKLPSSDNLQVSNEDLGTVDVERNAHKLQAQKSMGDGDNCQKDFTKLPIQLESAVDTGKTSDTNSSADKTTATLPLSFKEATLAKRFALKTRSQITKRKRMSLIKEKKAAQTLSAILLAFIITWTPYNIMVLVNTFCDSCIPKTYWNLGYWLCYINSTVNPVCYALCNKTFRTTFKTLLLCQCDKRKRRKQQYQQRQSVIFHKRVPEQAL
smiles,measurement,setting,value
"O=C(NC12CC1CN(Cc1ccccc1)C2)C(CO)c1ccccc1 (stereo not drawn) [Compound No. 4, (1α,5α)-N-[3-benzyl-3-azabicyclo[3.1.0]hex-1-yl]-2-hydroxymethyl-2-phenylacetamide]",Ki,M2 muscarinic receptor,15.8 µM
same,Ki,M3 muscarinic receptor,7.94 µM
